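48-hour exposure; five concentrations; linearly interpolated endpoints. The concentration for full growth arrest is given as TGI.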
Assays:
Assay in all cases: NCI anticancer screen, dose series, 48 h
786-0 renal = system: 786-0 renal
SK-MEL-28 melanoma = system: SK-MEL-28 melanoma
TK-10 renal = system: TK-10 renal
UACC-62 melanoma = system: UACC-62 melanoma
HCT-15 colon = system: HCT-15 colon
HCC-2998 colon = system: HCC-2998 colon
HL-60(TB) leukemia = system: HL-60(TB) leukemia
M14 melanoma = system: M14 melanoma
U251 CNS = system: U251 CNS
DU-145 prostate = system: DU-145 prostate
HOP-92 NSCLC = system: HOP-92 NSCLC
SNB-19 CNS = system: SNB-19 CNS
COLO 205 colon = system: COLO 205 colon
NCI-H522 lung = system: NCI-H522 lung
UO-31 renal = system: UO-31 renal
T-47D breast = system: T-47D breast
MDA-MB-231 breast = system: MDA-MB-231 breast
KM12 colon = system: KM12 colon
OVCAR-3 ovarian = system: OVCAR-3 ovarian
HOP-62 NSCLC = system: HOP-62 NSCLC
OVCAR-5 ovarian = system: OVCAR-5 ovarian
MDA-N = system: MDA-N
HS 578T breast = system: HS 578T breast
SNB-75 CNS = system: SNB-75 CNS
UACC-257 melanoma = system: UACC-257 melanoma
LOX IMVI melanoma = system: LOX IMVI melanoma
OVCAR-8 ovarian = system: OVCAR-8 ovarian
RXF 393 renal = system: RXF 393 renal
HCT-116 colon = system: HCT-116 colon
SF-268 CNS = system: SF-268 CNS
NCI/ADR-RES ovarian = system: NCI/ADR-RES ovarian
PC-3 prostate = system: PC-3 prostate
NCI-H226 lung = system: NCI-H226 lung
SK-MEL-2 melanoma = system: SK-MEL-2 melanoma
EKVX NSCLC = system: EKVX NSCLC
SF-295 CNS = system: SF-295 CNS
A549 NSCLC = system: A549 NSCLC
MALME-3M melanoma = system: MALME-3M melanoma
MCF7 breast = system: MCF7 breast
OVCAR-4 ovarian = system: OVCAR-4 ovarian
BT-549 breast = system: BT-549 breast
CAKI-1 renal = system: CAKI-1 renal
HT29 colon = system: HT29 colon
CCRF-CEM leukemia = system: CCRF-CEM leukemia
SR leukemia = system: SR leukemia
MDA-MB-435 = system: MDA-MB-435
IGROV1 ovarian = system: IGROV1 ovarian
MOLT-4 leukemia = system: MOLT-4 leukemia
RPMI-8226 leukemia = system: RPMI-8226 leukemia
SK-OV-3 ovarian = system: SK-OV-3 ovarian
SN12C renal = system: SN12C renal
ACHN renal = system: ACHN renal
NCI-H23 lung = system: NCI-H23 lung
SF-539 CNS = system: SF-539 CNS
SW-620 colon = system: SW-620 colon

Measured: TGI

O=C1NC(N2CCOCC2)=N/C1=C\c1ccc(O)cc1
> 100 µM: all assays above

From PubChem BioAssay (NCI)
